Test results reported in patent US20220242853A1, “MODIFIED CYANINE DYES AND CONJUGATES THEREOF” (BRACCO IMAGING S.P.A., priority 2019, published 2022).

Tests used:
[1] = Optical properties: excitation/emission maxima and absolute fluorescence quantum yield; assay type: physicochemical
Method: Analysis were performed with a Waters Atlantis dC18 5 μm, 4.6×150 mm column using a gradient of phase A CH3COONH4 10 mM and phase B acetonitrile. Measured mass/charge ratios are listed for each compound. A dual-beam UV-VIS spectrophotometer (Lambda 40, Perkin Elmer) was used to determine the absorbance (Abs) of the compounds of the invention. […] The measurements were performed using an excitation wavelength at maximum absorbance of different dyes, and the sample was excited with a […] Xenon Light Source. Detection was performed by photomultiplier tubes (PMT-NIR) cooled detector or by TBX-04 detector. Dye solutions were carefully prepared to have an absorbance lower than 0.1 (optical densities) to minimize re-absorption phenomena. The compounds of the invention have been characterized in terms of their optical properties in vitro in aqueous medium (i.e., water/PBS pH 7.4) and in a clinical chemistry control serum (Seronorm, Sero SA), mimicking the chemical composition and optical properties of human serum. All dye or dye-conjugate solutions were freshly prepared.

[2] = target: T1, human recombinant integrin αvβ3 (Homo sapiens, UniProt P05106+P06756); experiment: Integrin receptor affinity ELISA (vitronectin-coated plates); assay type: binding; settings: tested in duplicate; read-out: Receptor affinity (IC50)
T1 construct: purchased R&D Systems

[3] = tested on: WM-266-4 human melanoma cells; experiment: Cell uptake by flow cytometry (FACS); assay type: cell-based
Method: The human melanoma cell line WM-266-4 (ATCC, CRL-1676) was used as in vitro model to assess the cell uptake of representative integrin-binding Compounds 1 and 3, based on the high expression of the integrin receptors, particularly αvβ3, on the membrane of these cells (Capasso et al., PlosOne 2014).
Adherent cells at about 70% confluence were incubated with the compounds 1 or 3 (1 μM) for 2h at 37° C. (5% CO2) in presence of Dulbecco's Modified Eagle's Medium (DMEM) supplemented with 10% FBS, 2 mM glutamine, 100 IU/mL penicillin and 100 μg/mL streptomycin. After two washing steps with PBS, cells were detached using 0.1 mM EDTA in PBS, centrifuged and suspended in buffer (PBS, 0.5% BSA, 0.1% NaN3) for flow cytometry experiments. Fluorescence Activated Cell Sorting (FACS) was used to detect the fluorescence signal within the cells, as measure of cell uptake. Samples were excited with an Argon laser and the emission detected using a 670 nm longpass filter. Values of fluorescence intensity were obtained from the histogram statistic produced by the instrument software.
The residual internalization was calculated by considering the value of fluorescence intensity in absence of the competitor as 100%.
Furthermore, to assess the effect of biological fluids on the cell uptake, parallel experiments were performed incubating the cells with a compounds of the invention in presence of human serum from male AB plasma (Sigma Aldrich, H4522) or human albumin (Sigma Aldrich, A9511). The residual internalization was calculated by considering the value of fluorescence intensity in absence of the serum as 100%. Such uptake assessment also represents an indication of the percentage of compound which is sequestered by the plasma proteins, in particular albumin, when it diffuses through the vascular compartment before reaching the tissue of interest and the particular targeted receptor.

U87MG cells = experiment: Tumor uptake by optical imaging, subcutaneous human glioblastoma model; assay type: in vivo, Balb/c nu/nu mice; settings: iv 1 nmol, 1-2 hours after administration, tumor vs muscle
Method: Tumor uptake experiments were carried out in an animal model of human glioblastoma (subcutanous) overexpressing the integrin receptors, particularly αvβ3. Briefly, human glioblastoma U87MG cells (ATCC, HTB-14) were cultured in Eagle's Minimum Essential Medium (EMEM) supplemented with 10% Fetal Bovine Serum (FBS), 2 mM glutamine, 100 IU/mL penicillin, 100 μg/mL streptomycin. Male Balb/c nu/nu mice, 4-6 weeks of age (Charles River Laboratories), underwent subcutaneous implantation (right flank) of about 10 million cells suspended in 0.1 mL of EMEM. Mice were housed 4 per cage with food and water ad libitum. […] Then, AIN-76a rodent diet irradiated (Research Diets), a special diet that reduces auto-fluorescence, was used up to the end of the experiments. Tumor growth was monitored by longitudinal assessments using a caliper up to the target size of 300-600 mm^3 (3-4 weeks after cell implantation). […]
(§1) In vivo imaging was performed under gas anesthesia (Sevofluorane 6-8% in oxygen). […] Regions of interest (ROIs) were drawn on the tissues of interest for each fluorescence image at every time point to evaluate signal intensity (expressed as Average Radiant Efficiency). The ratio between the fluorescence signal in the tumor and in the muscle (background tissue) was then calculated to assess the contrast.

HT-29 cells = experiment: Tumor uptake by optical imaging, subcutaneous human colorectal cancer model; assay type: in vivo, Athymic nude mice; settings: iv 1 nmol, tumor vs muscle
Method: Parallel experiments were performed in an animal model of human colorectal cancer (subcutaneous), using HT-29 cells, expressing low levels of integrin receptors. Briefly, the human colorectal adenocarcinoma cells HT-29 (ATCC, HTB-38) were cultured in McCoy's 5A medium supplemented with 10% foetal bovine serum, 2 mM glutamine, 100 IU/mL penicillin and 100 μg/mL streptomycin. Male Athymic nude mice, 4-6 weeks of age (Envigo), underwent subcutaneous implantation (right flank) of about 5 million cells suspended in 0.1 mL of serum-free medium. Mice were housed 4 per cage with food and water ad libitum. […] Then, AIN-76a rodent diet irradiated (Research Diets), a special diet that reduces auto-fluorescence, was used up to the end of the experiments. Tumor growth was monitored by longitudinal assessments using a caliper up to the target size of 300-600 mm^3 (3-4 weeks after cell implantation). […]
as §1

- IC50 [2]: 2.96 ± 0.49 nM
SMILES: CC(CC[N+]1=C(/C=C/C=C/C=C/C=C2/N(CCCCCC(=O)NCCCC[C@@H]3NC(=O)C(Cc4ccccc4)NC(=O)[C@H](CC(=O)O)NC(=O)CNC(=O)[C@H](CCCNC(=N)N)NC3=O)c3ccc(C(=O)NCC(O)C(O)C(O)C(O)CO)cc3C2(C)C)C(C)(C)c2cc(C(=O)NCC(O)C(O)C(O)C(O)CO)ccc21)S(=O)(=O)[O-] (stereo partly shown) [Compound 1]
- Max Em ([1]; PBS pH 7.4): 786 nm
- Max Ex ([1]; PBS pH 7.4): 757 nm
- Φ (absolute fluorescence quantum yield) ([1]; PBS pH 7.4): 9.8%
- Φ (absolute fluorescence quantum yield) ([1]; Seronorm control serum): 13.0%
- Residual uptake in the presence of 4% HSA ([3]; 1 μM, 2h at 37° C.): 70%
- Residual cell uptake in presence of human serum ([3]; 1 μM, 2h at 37° C., uptake without serum = 100%): 80%
- Residual uptake in the presence of c(RGDfK) as competitor ([3]; 100 μM c(RGDfK), uptake without competitor = 100%): 10%
- Tumor-to-background ratio (TBR) (U87MG cells): 2-2.5
- Tumor-to-background ratio (TBR) (HT-29 cells): 1.2-1.5
